According to US10738028B2, “Spiro three-membered ring, spiro five-membered ring peptide deformylase inhibitor and use thereof in antibacteria and anti-tumor” (priority 2016, dated 2020):

Experiments:
Assay type in all cases: cell-based
[1] = tested on: Enterococcus faecalis (EFA); assay: MIC, two-fold agar dilution (CLSI), clinical isolates
Method in brief: (§1)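 Susceptibility was tested using CLSI two-fold agar dilution against the strains examined.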

[2] = tested on: Enterococcus faecium (EFM); assay: as above
Method in brief: as §1

[3] = tested on: Escherichia coli (including ESBLs, non-ESBLs); assay: as above
Method in brief: as §1

[4] = tested on: Moraxella catarrhalis (BCA); assay: as above
Method in brief: as §1

[5] = tested on: Streptococcus pneoumoniae (SPN); assay: as above
Method in brief: as §1

[6] = tested on: methicillin-resistant Staphylococcus aureus (MRSA); assay: as above
Method in brief: as §1

[7] = tested on: methicillin-resistant Staphylococcus epidermidis (MRSE); assay: as above
Method in brief: as §1

[8] = tested on: methicillin-sensitive Staphylococcus aureus (MSSA); assay: as above
Method in brief: as §1

[9] = tested on: methicillin-sensitive Staphylococcus epidermidis (MSSE); assay: as above
Method in brief: as §1

[10] = tested on: HCT-116 colorectal cancer cell line; assay: CCK-8 proliferation inhibition; conditions: Homo sapiens, HCT-116, 72 h, concentration of 30 μM; 72 hours; CCK-8; read-out: HCT116 inhibition rate/%
Method in brief: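 Proliferation over 72 hours of compound treatment was measured with CCK-8 against a 1‰ DMSO control.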

CCCC[C@H](CN(O)C=O)C(=O)N1CC2(CC2)C[C@H]1C(=O)Nc1nncs1 [Example 23, (S)-5-((R)-2-((N-hydroxyformamido)methyl)hexanoyl)-N-(1,3,4-thiadiazol-2-yl)-5-azaspiro[2.4]heptane-6-carboxamide]
7%: inhibition at 30 µM [10]
2 µg/mL: MIC (anti-bacterial activity) ([4]; strain BCA 14-7) | MIC (anti-bacterial activity) ([4]; strain BCA 14-8) | MIC (anti-bacterial activity) ([6]; strain MRSA 15-2) | MIC (anti-bacterial activity) ([6]; strain MRSA 15-4)
0.5 µg/mL: MIC (anti-bacterial activity) ([2]; strain EFM 15-3) | MIC (anti-bacterial activity) ([2]; strain EFM 15-5)
15 µg/mL: MIC (anti-bacterial activity) ([5]; strain SPN 16-2)
4 µg/mL: MIC (anti-bacterial activity) ([4]; strain BCA 14-4) | MIC (anti-bacterial activity) ([4]; strain BCA 14-6)
8 µg/mL: MIC (anti-bacterial activity) ([2]; strain EFM 15-2) | MIC (anti-bacterial activity) ([2]; strain EFM 15-4) | MIC (anti-bacterial activity) ([2]; strain EFM 15-6) | MIC (anti-bacterial activity) ([4]; strain BCA 14-1)
1 µg/mL: MIC (anti-bacterial activity) ([1]; strain EFA 15-3) | MIC (anti-bacterial activity) ([2]; strain EFM 15-1) | MIC (anti-bacterial activity) ([4]; strain BCA 14-5) | MIC (anti-bacterial activity) ([4]; strain BCA 14-10) | MIC (anti-bacterial activity) ([5]; strain SPN 16-4) | MIC (anti-bacterial activity) ([7]; strain MRSE 15-7) | MIC (anti-bacterial activity) ([8]; strain MSSA 15-3) | MIC (anti-bacterial activity) ([8]; strain MSSA 15-4)
32 µg/mL: MIC (anti-bacterial activity) ([1]; strain EFA 15-1) | MIC (anti-bacterial activity) ([1]; strain EFA 15-2) | MIC (anti-bacterial activity) ([1]; strain EFA 15-4) | MIC (anti-bacterial activity) ([1]; strain EFA 15-5) | MIC (anti-bacterial activity) ([1]; strain EFA 15-6) | MIC (anti-bacterial activity) ([1]; strain EFA 15-9)
0.25 µg/mL: MIC (anti-bacterial activity) ([6]; strain MRSA 15-1) | MIC (anti-bacterial activity) ([6]; strain MRSA 15-3) | MIC (anti-bacterial activity) ([7]; strain MRSE 15-1) | MIC (anti-bacterial activity) ([7]; strain MRSE 15-2) | MIC (anti-bacterial activity) ([7]; strain MRSE 15-3) | MIC (anti-bacterial activity) ([8]; strain MSSA 15-5) | MIC (anti-bacterial activity) ([8]; strain MSSA 15-6) | MIC (anti-bacterial activity) ([9]; strain MSSE 15-3) | MIC (anti-bacterial activity) ([9]; strain MSSE 15-4) | MIC (anti-bacterial activity) ([9]; strain MSSE 15-5) | MIC (anti-bacterial activity) ([9]; strain MSSE 15-6)
> 32 µg/mL: MIC (anti-bacterial activity) ([3]; strain ECO+ 15-1) | MIC (anti-bacterial activity) ([3]; strain ECO+ 15-2) | MIC (anti-bacterial activity) ([3]; strain ECO+ 15-3) | MIC (anti-bacterial activity) ([3]; strain ECO+ 15-4) | MIC (anti-bacterial activity) ([3]; strain ECO− 15-1) | MIC (anti-bacterial activity) ([3]; strain ECO− 15-2) | MIC (anti-bacterial activity) ([3]; strain ECO− 15-3) | MIC (anti-bacterial activity) ([3]; strain ECO− 15-4)

CCCC[C@H](CC(=O)NO)C(=O)N1CC2(CCCC2)C[C@H]1C(=O)Nc1cc(C)on1 [Example 80, (S)-2-((R)-2-(2-(hydroxyamino)-2-oxoethyl)hexanoyl)-N-(5-methylisoxazol-3-yl)-2-spiro[4.4]nonane-3-carboxamide]
2 µg/mL: Anti-bacterial activity (MIC) ([2]; strain EFM 15-5) | Anti-bacterial activity (MIC) ([4]; strain BCA 14-5) | Anti-bacterial activity (MIC) ([6]; strain MRSA 15-2) | Anti-bacterial activity (MIC) ([6]; strain MRSA 15-4) | Anti-bacterial activity (MIC) ([7]; strain MRSE 15-7) | Anti-bacterial activity (MIC) ([8]; strain MSSA 15-3)
16 µg/mL: Anti-bacterial activity (MIC) ([1]; strain EFA 15-1) | Anti-bacterial activity (MIC) ([3]; strain ECO+ 15-2)
11%: inhibition at 30 µM [10]
0.5 µg/mL: Anti-bacterial activity (MIC) ([7]; strain MRSE 15-2) | Anti-bacterial activity (MIC) ([7]; strain MRSE 15-3) | Anti-bacterial activity (MIC) ([8]; strain MSSA 15-5)
1 µg/mL: Anti-bacterial activity (MIC) ([6]; strain MRSA 15-1) | Anti-bacterial activity (MIC) ([6]; strain MRSA 15-3) | Anti-bacterial activity (MIC) ([8]; strain MSSA 15-4) | Anti-bacterial activity (MIC) ([8]; strain MSSA 15-6) | Anti-bacterial activity (MIC) ([9]; strain MSSE 15-3)
> 16 µg/mL: Anti-bacterial activity (MIC) ([1]; strain EFA 15-2) | Anti-bacterial activity (MIC) ([1]; strain EFA 15-4) | Anti-bacterial activity (MIC) ([1]; strain EFA 15-5) | Anti-bacterial activity (MIC) ([1]; strain EFA 15-6) | Anti-bacterial activity (MIC) ([1]; strain EFA 15-9) | Anti-bacterial activity (MIC) ([3]; strain ECO+ 15-1) | Anti-bacterial activity (MIC) ([3]; strain ECO+ 15-3) | Anti-bacterial activity (MIC) ([3]; strain ECO+ 15-4) | Anti-bacterial activity (MIC) ([3]; strain ECO− 15-1) | Anti-bacterial activity (MIC) ([3]; strain ECO− 15-2) | Anti-bacterial activity (MIC) ([3]; strain ECO− 15-3) | Anti-bacterial activity (MIC) ([3]; strain ECO− 15-4)
4 µg/mL: Anti-bacterial activity (MIC) ([2]; strain EFM 15-2) | Anti-bacterial activity (MIC) ([2]; strain EFM 15-4) | Anti-bacterial activity (MIC) ([4]; strain BCA 14-7) | Anti-bacterial activity (MIC) ([4]; strain BCA 14-10) | Anti-bacterial activity (MIC) ([5]; strain SPN 16-4)
0.25 µg/mL: Anti-bacterial activity (MIC) ([7]; strain MRSE 15-1) | Anti-bacterial activity (MIC) ([9]; strain MSSE 15-4) | Anti-bacterial activity (MIC) ([9]; strain MSSE 15-5) | Anti-bacterial activity (MIC) ([9]; strain MSSE 15-6)
8 µg/mL: Anti-bacterial activity (MIC) ([1]; strain EFA 15-3) | Anti-bacterial activity (MIC) ([2]; strain EFM 15-1) | Anti-bacterial activity (MIC) ([2]; strain EFM 15-3) | Anti-bacterial activity (MIC) ([2]; strain EFM 15-6) | Anti-bacterial activity (MIC) ([4]; strain BCA 14-1) | Anti-bacterial activity (MIC) ([4]; strain BCA 14-4) | Anti-bacterial activity (MIC) ([4]; strain BCA 14-6) | Anti-bacterial activity (MIC) ([4]; strain BCA 14-8) | Anti-bacterial activity (MIC) ([5]; strain SPN 16-2)

CCCC[C@H](CC(=O)NO)C(=O)N1CC2(CC2)C[C@H]1c1nc2ccccc2[nH]1 [Example 58, (R)-3-((S)-6-(1H-benzimidazol-2-yl)-5-azaspiro[2.4]heptane-5-formyl)-N-hydroxyheptanamide]
8 µg/mL: Anti-bacterial activity (MIC), strain EFM 15-4 ([2]; clinical isolate EFM 15-4) | Anti-bacterial activity (MIC), strain EFM 15-5 ([2]; clinical isolate EFM 15-5) | Anti-bacterial activity (MIC), strain EFM 15-6 ([2]; clinical isolate EFM 15-6) | Anti-bacterial activity (MIC), strain BCA 14-5 ([4]; clinical isolate BCA 14-5) | Anti-bacterial activity (MIC), strain SPN 16-2 ([5]; clinical isolate SPN 16-2)
24%: inhibition at 30 µM [10]
> 32 µg/mL: Anti-bacterial activity (MIC), strain EFA 15-1 ([1]; clinical isolate EFA 15-1) | Anti-bacterial activity (MIC), strain EFA 15-2 ([1]; clinical isolate EFA 15-2) | Anti-bacterial activity (MIC), strain EFA 15-3 ([1]; clinical isolate EFA 15-3) | Anti-bacterial activity (MIC), strain EFA 15-4 ([1]; clinical isolate EFA 15-4) | Anti-bacterial activity (MIC), strain EFA 15-5 ([1]; clinical isolate EFA 15-5) | Anti-bacterial activity (MIC), strain EFA 15-6 ([1]; clinical isolate EFA 15-6) | Anti-bacterial activity (MIC), strain EFA 15-9 ([1]; clinical isolate EFA 15-9) | Anti-bacterial activity (MIC), strain EFM 15-1 ([2]; clinical isolate EFM 15-1) | Anti-bacterial activity (MIC), strain EFM 15-2 ([2]; clinical isolate EFM 15-2) | Anti-bacterial activity (MIC), strain EFM 15-3 ([2]; clinical isolate EFM 15-3) | Anti-bacterial activity (MIC), strain ECO+ 15-1 ([3]; clinical isolate ECO+ 15-1) | Anti-bacterial activity (MIC), strain ECO+ 15-2 ([3]; clinical isolate ECO+ 15-2) | Anti-bacterial activity (MIC), strain ECO+ 15-3 ([3]; clinical isolate ECO+ 15-3) | Anti-bacterial activity (MIC), strain ECO+ 15-4 ([3]; clinical isolate ECO+ 15-4) | Anti-bacterial activity (MIC), strain ECO− 15-1 ([3]; clinical isolate ECO− 15-1) | Anti-bacterial activity (MIC), strain ECO− 15-2 ([3]; clinical isolate ECO− 15-2) | Anti-bacterial activity (MIC), strain ECO− 15-3 ([3]; clinical isolate ECO− 15-3) | Anti-bacterial activity (MIC), strain ECO− 15-4 ([3]; clinical isolate ECO− 15-4) | Anti-bacterial activity (MIC), strain BCA 14-1 ([4]; clinical isolate BCA 14-1) | Anti-bacterial activity (MIC), strain BCA 14-4 ([4]; clinical isolate BCA 14-4) | Anti-bacterial activity (MIC), strain BCA 14-6 ([4]; clinical isolate BCA 14-6) | Anti-bacterial activity (MIC), strain BCA 14-7 ([4]; clinical isolate BCA 14-7) | Anti-bacterial activity (MIC), strain BCA 14-8 ([4]; clinical isolate BCA 14-8) | Anti-bacterial activity (MIC), strain BCA 14-10 ([4]; clinical isolate BCA 14-10) | Anti-bacterial activity (MIC), strain SPN 16-4 ([5]; clinical isolate SPN 16-4) | Anti-bacterial activity (MIC), strain MRSA 15-1 ([6]; clinical isolate MRSA 15-1) | Anti-bacterial activity (MIC), strain MRSA 15-2 ([6]; clinical isolate MRSA 15-2) | Anti-bacterial activity (MIC), strain MRSA 15-3 ([6]; clinical isolate MRSA 15-3) | Anti-bacterial activity (MIC), strain MRSA 15-4 ([6]; clinical isolate MRSA 15-4) | Anti-bacterial activity (MIC), strain MRSE 15-1 ([7]; clinical isolate MRSE 15-1) | Anti-bacterial activity (MIC), strain MRSE 15-2 ([7]; clinical isolate MRSE 15-2) | Anti-bacterial activity (MIC), strain MRSE 15-3 ([7]; clinical isolate MRSE 15-3) | Anti-bacterial activity (MIC), strain MRSE 15-7 ([7]; clinical isolate MRSE 15-7) | Anti-bacterial activity (MIC), strain MSSA 15-3 ([8]; clinical isolate MSSA 15-3) | Anti-bacterial activity (MIC), strain MSSA 15-4 ([8]; clinical isolate MSSA 15-4) | Anti-bacterial activity (MIC), strain MSSA 15-5 ([8]; clinical isolate MSSA 15-5) | Anti-bacterial activity (MIC), strain MSSA 15-6 ([8]; clinical isolate MSSA 15-6) | Anti-bacterial activity (MIC), strain MSSE 15-3 ([9]; clinical isolate MSSE 15-3) | Anti-bacterial activity (MIC), strain MSSE 15-4 ([9]; clinical isolate MSSE 15-4) | Anti-bacterial activity (MIC), strain MSSE 15-5 ([9]; clinical isolate MSSE 15-5) | Anti-bacterial activity (MIC), strain MSSE 15-6 ([9]; clinical isolate MSSE 15-6)
